Consider one substance from patent US10869481B2, “Method for controlling nematode pests” (Syngenta Participations AG, priority 2014, dated 2020).

Common to all, as to type: in vivo, Heterodera schachtii
The test system of assay [1] is sugar beet nematode (SBN). Kind of assay: Yield response field trials, INVICTA susceptible sugar beet seeds, seed treatment. The procedure: (§1) The yield response study illustrates the unexpected increase in yield achieved by using a nematode-antagonistic biocontrol agent with SBN resistant or tolerant varieties. Multiple field trials were conducted across Germany, Czech Republic and Denmark. The results of nine different trials are presented below utilizing seed treatments on sugar beet seeds to combat nematodes.
(§2) The tests presented below were run on both susceptible and SBN tolerant varieties of sugar beet seeds. In particular, the susceptible variety is known by the trade name INVICTA and the tolerant variety is known by the trade name CACTUS. Each trial, on both the susceptible and tolerant variety, was run with a Control check that included no nematicide, a treatment on the seed with Pasteuria nishizawae at about 1×10^6 spores/seed, a treatment on the seed with Pasteuria nishizawae at about 1×10^7 spores/seed, and a treatment on the seed that included a commercial soil applied standard nematicide.
(§3) The results of trails are presented below where yield data has been averaged.
INVICTA Susceptible Sugar Beet Seeds

For assay [2], the system named is sugar beet nematode (SBN). As to the kind of experiment: Yield response field trials, CACTUS tolerant sugar beet seeds, seed treatment. Particulars: for White Sugar yield/ha: CACTUS tolerant sugar beet, average of nine field trials. The procedure:
as §1, §2, §3
CACTUS Tolerant Sugar Beet Seeds

The test system of assay [3] is sugar beet nematode (SBN). Kind of assay: Root and sugar yield field trials, susceptible sugar beet seeds, seed treatment. The procedure:
(§4) The root and sugar yield response study illustrates the unexpected increase in root and sugar yield achieved by using a nematode-antagonistic biocontrol agent with SBN resistant or tolerant varieties. Multiple field trials were conducted across Nebraska, Colorado, and Idaho. The results of four different trials are presented below utilizing seed treatments on sugar beet seeds to combat nematodes.
(§5) The tests presented below were run on both susceptible and SBN tolerant varieties of sugar beet seeds. Each trial, on both the susceptible and tolerant variety, was run with a Control check that included no nematicide, a treatment on the seed with Pasteuria nishizawae at about 5×10^6 spores/seed, a treatment on the seed with Pasteuria nishizawae at about 1×10^7 spores/seed, a treatment on the seed with Pasteuria nishizawae at about 2×10^7 spores/seed and a treatment on the seed with Pasteuria nishizawae at about 4×10^7 spores/seed.
as §3
Susceptible Sugar Beet Seeds

Assay [4] deals with sugar beet nematode (SBN). As to the kind of experiment: Root and sugar yield field trials, tolerant sugar beet seeds, seed treatment. Particulars: average of four field trials. The procedure: as §4, §5, §3
Tolerant Sugar Beet Seeds

The mark [5] stands for this setting: 1 × 10^7 spores/seed, average of four field trials.
[6] abbreviates: 2 × 10^7 spores/seed, average of four field trials.
Setting [7] is: 4 × 10^7 spores/seed, average of four field trials.

Consider Pasteuria nishizawae, for which the “White Sugar yield/ha” value in assay [1] (seed treatment 1 × 10^6 spores/seed, average of nine field trials (Germany, Czech Republic, Denmark)) is 11.09 /ha; in assay [1] (seed treatment 1 × 10^7 spores/seed, average of nine field trials), 11.20 /ha; in assay [2] (seed treatment 1 × 10^6 spores/seed), 12.65 /ha; in assay [2] (seed treatment 1 × 10^7 spores/seed) it was 12.93 /ha. For the same substance, in assay [2] (tolerant varieties treated with Pasteuria, statement in words), the “yield compared with commercial standards” value is “showed an increase over commercial standards”. In addition, the “Root Yield” value is 19.9 Ton/Acre in assay [3] (setting [5]); 19.8 Ton/Acre in assay [3] (setting [6]); 19.5 Ton/Acre in assay [3] (setting [7]); 17.4 Ton/Acre in assay [3] (5 × 10^6 spores/seed, average of four field trials); 27.2 Ton/Acre in assay [4] (1 × 10^7 spores/seed); 27.2 Ton/Acre in assay [4] (2 × 10^7 spores/seed). For the same substance, the “Root Yield” value in assay [4] (4 × 10^7 spores/seed) came out at 26.7 Ton/Acre; in assay [4] (5 × 10^6 spores/seed) it was 26.1 Ton/Acre. The “White Sugar” value in assay [3] (setting [5]) came to 2.5 Ton/Acre; in assay [3] (setting [6]), 2.3 Ton/Acre; in assay [3] (setting [7]), 2.4 Ton/Acre; in assay [3] (5 × 10^6 spores/seed, average of four field trials (Nebraska, Colorado, Idaho)), 2.0 Ton/Acre; in assay [4] (1 × 10^7 spores/seed), 3.5 Ton/Acre; in assay [4] (2 × 10^7 spores/seed) it was 3.7 Ton/Acre. Besides, the “White Sugar” value in assay [4] (4 × 10^7 spores/seed) amounted to 3.5 Ton/Acre; in assay [4] (5 × 10^6 spores/seed), 3.6 Ton/Acre.
